{"source": "patent US12162918B2", "about": "“Periostin compounds for the treatment of haematological complications” (Chemotherapeutisches Forschungsinstitut Georg-Speyer-Haus, priority 2018, dated 2024)", "key": {"[1]": {"system": "Lin− hematopoietic cells", "assay": "Direct effect of warfarin on Lin− hematopoietic cells in vitro", "assay_type": "cell-based, mice", "protocol": "Concentrations of drugs for in vitro use were 2 μM for warfarin, 2 μg/ml for periostin, 5 μM for the AKT inhibitor MK-2206 (Selleck Chemicals, Houston, TX) and cilengitide (Selleck Chemicals, Houston, TX, Cat. No. #S7077) was used at 0.05 μM. Phosphate buffered saline served as the vehicle control.\nTo test the direct effect of warfarin on hematopoietic cells 100,000 Lin− cells were cultured in 2 μM vehicle or warfarin in the absence of stroma cells for a total of 7 days. For the in vitro rescue experiment with periostin stroma cells were grown in warfarin for 14 days, before vehicle or periostin were added."}, "[2]": {"system": "CD45.1+ LKS cells", "assay": "Transplantation of sorted LKS or Lin− cells from warfarin-treated mice into untreated recipients", "assay_type": "in vivo", "protocol": "SJL (CD45.1) donor mice were treated with vehicle or warfarin, euthanized and long bones were flushed, followed by RBC lysis (Life Technologies, Darmstadt, Germany). For competitive transplantation 2×10^6 total BM cells from SJL mice were co-transplanted with 1×10^6 CD45.2+ BM competitor cells into lethally irradiated (900 cGy) C57BL/6N (CD45.2+) recipient mice. For serial transplantation 2×10^6 total CD45.1+ BM cells were transplanted into lethally irradiated C57BL/6N recipient mice. Cell engraftment and chimerism were assessed by flow cytometry of peripheral blood leukocytes for CD45.1 and CD45.2 after 4, 8, 12 and 16 weeks post transplantation. In the limiting dilution experiment we treated primary CD45.1+ donor mice with vehicle or warfarin for 14 days and, consequently, transplanted 5×10^5, 12.5×10^4, 6×10^4 and 1.5×10^4 pooled BM cells into 5 CD45.2+ recipients per group adding 5×10^5 CD45.2+ supporter cells. In indicated experiments we transplanted 5,000 or 10,000 sorted CD45.1+ LKS cells from mice treated with vehicle or warfarin plus 1×10^6 CD45.2+ total BM supporter cells into CD45.2+ recipient mice."}, "[3]": {"system": "Lin− hematopoietic cells on stroma cells", "assay": "Cobblestone-formation and coculture assay of Lin− cells on stroma cells", "assay_type": "cell-based, mice", "protocol": "In the co-culture and cobblestone assays 20,000 Lin− cells were plated on stroma cells, which had been grown and expanded from vehicle- or warfarin-treated mice in medium (α-MEM medium supplemented with 20% fetal bovine serum, 1% penicillin/streptomycin, 1% L-Glutamine) containing vehicle or warfarin (2 μM). Conditioned medium was harvested from stroma from 5 mice grown in the above medium containing vehicle or warfarin for 7 days. Consequently, 100,000 Lin− cells were grown for 2-3 days in the conditioned medium and analyzed for cell counts by flow cytometry. Where indicated, the conditioned medium was concentrated using Microsep Advance Centrifugal Devices 30K Omega (Pall Life Sciences, Portsmouth, UK).\nFor all coculture assays hematopoietic and stroma cells were derived from the same mouse strain (C57/B16). Stroma cells were used after a maximum of two passages and when they were 70-80% confluent. Stroma cells were derived by crushing bones from mice, plating them in α-MEM medium containing 20% fetal calf serum, penicillin/strptomycin and by removing non-adherent hematopoietic cells the following day, as described (Mukherjee et al., 2008)."}, "[4]": {"system": "stroma cells", "assay": "Focused gene expression analysis of stroma cells", "assay_type": "cell-based, mice", "conditions": "warfarin- compared to vehicle-treated stroma cells"}, "[5]": {"system": "periostin", "assay": "Anti-Gla coimmunoprecipitation of conditioned medium from stroma cells", "assay_type": "cell-based, mice", "conditions": "warfarin-treated stroma cells, anti-gla antibody"}, "[6]": {"system": "LKS and LKS SLAM cells", "assay": "G-CSF-mediated mobilization", "assay_type": "in vivo", "conditions": "warfarin-treated mice", "protocol": "In the mobilization experiments vehicle- or warfarin-treated C57/B16 mice were treated with 200 μg/kg G-CSF daily for 4 days, sacrificed on day 5 and peripheral blood analyzed for LKS and LKS SLAM cells by flow cytometry."}, "[7]": {"system": "wildtype mice", "assay": "Measurement of the INR of warfarin-treated mice", "assay_type": "in vivo", "conditions": "only at 0.5 mg/kg, vs sham-operated control mice, P=0.009", "protocol": "(§1) 0.5 mg/kg/d or 0.05 mg/kg/d of warfarin, resuspended in phosphate-buffered saline was administered to mice via subcutaneously implanted osmotic minipumps (ALZET minipumps, Cupertino, CA). The osmotic minipumps were changed after 14 days (if the experiment went beyond 14 days of treatment). Sham operated (skin incision and suture) mice served as controls. Warfarin treatment continued for 10-14 days. In the xenotransplantation experiments the mice were treated with warfarin via the drinking water (or normal drinking water) at a dose of 0.72 mg/100 ml for a total of 3 days a week (Pfeilschifter et al., 2011).\nA Coaguchek XS (Roche Diagnostics, Mannheim, Germany) and Coaguchek XS PT test strips were used to determine the INR of vehicle- and warfarin-treated mice."}, "[8]": {"system": "HSPC", "assay": "Methylcellulose colony assay of BM cells from treated mice", "assay_type": "cell-based", "conditions": "from warfarin-treated vs control mice, P=0.02", "source_text": "For the methylcellulose colony assays, we plated 10,000 total BM cells from vehicle- or warfarin-treated mice in methylcellulose (M3434, Stem Cell Technologies, Vancouver, Canada). We scored colonies after 10 days."}, "[9]": {"system": "periostin knockout mice", "assay": "Warfarin treatment of periostin knockout mice", "assay_type": "in vivo", "source_text": "7 to 10 week old C57BL6/N (CD45.2) or SJL (CD45.1; B6.SJL-Ptprca Pepcb/BoyJ), Col1a1 2.3 kb-GFP (kind gift from D. Rowe), Nestin-GFP (Mignone et al., 2004) and periostin knockout mice (kind gift from Juerg Huelsken) were used for these experiments. NOD SCID interleukin (IL)-2 receptor γ deficient (NSG) mice were purchased from Charles River Laboratories (Sulzfeld, Germany) and bred in our facility. All animal studies were approved by the local German government (Regierungspräsidium Darmstadt) in Hessen, Germany, and by the Institutional Animal Care and Use Committee (IACUC) of Boston University.\nas §1\n5-fluorouracil was intraperitoneally injected every week at a dose of 75 mg/kg for a total of 4 doses or as a one time dose of 200 mg/kg. […]"}}, "data": [{"smiles": "CC(=O)CC(c1ccccc1)c1c(O)c2ccccc2oc1=O", "note": "(centres unmarked) [warfarin]", "values": [{"measurement": "number of colonies from Lin− cells previously exposed in vitro", "setting": "[1]; 2 μM warfarin or vehicle for 7 days, scored day 10", "result": "did not yield significantly different numbers of colonies"}, {"measurement": "effect on phenotypical Lin− or LKS cells, annexin V+ dead cells, cycling or myeloid cells", "setting": "[1]; Lin− cells cultured in warfarin-containing media", "result": "no direct effect"}, {"measurement": "percentage of Lin− cells in the S/G2/M phases after transplantation into an untreated BMM", "setting": "[2]; Lin− cells from a warfarin-treated BMM, P=0.04", "result": "increase"}, {"measurement": "percentage of CD45.1+ donor cells in peripheral blood of recipients", "setting": "[2]; equal numbers of LKS cells from warfarin-treated donors, one month after transplantation, P=0.03", "result": "higher percentage"}, {"measurement": "reconstitution by warfarin-treated LKS cells", "setting": "[2]; higher number of transplanted LKS cells, 16 weeks post transplantation", "result": "lower than in the case of control LKS cells"}, {"measurement": "annexin V+ dead hematopoietic cells in coculture with stroma cells", "setting": "[3]; in the presence of warfarin vs vehicle, P=0.04", "result": "modest increase"}, {"measurement": "number of cobblestone-forming areas", "setting": "[3]; untreated Lin− cells on previously warfarin-treated stroma, P=0.03", "result": "significantly decreased"}, {"measurement": "expression of C-X-C motif chemokine 12 (CxCl12)", "setting": "[4]", "result": "trend towards increased expression"}, {"measurement": "expression of osteopontin, Runx 2, Ccl3, Angpt1, Igf1, Notch1 and Wnt7b", "setting": "[4]", "result": "significant decreases"}, {"measurement": "expression of stem cell factor (SCF; Kitl)", "setting": "[4]", "result": "unchanged"}, {"measurement": "γ-carboxylated periostin in conditioned medium", "setting": "[5]", "result": "no γ-carboxylated periostin could be detected"}, {"measurement": "G-CSF-mediated mobilization of LKS SLAM cells into peripheral blood", "setting": "[6]; P=0.026", "result": "impaired"}, {"measurement": "G-CSF-mediated mobilization of LKS cells into peripheral blood", "setting": "[6]; P=0.042", "result": "impaired"}, {"measurement": "international normalized ratio (INR)", "setting": "[7]", "result": "modest, but significant increase"}, {"measurement": "colony-forming ability of HSPC", "setting": "[8]", "result": "significantly impaired"}, {"measurement": "leukocyte counts or survival in periostin knockout mice after 5-fluorouracil", "setting": "[9]; repetitive doses of 75 mg/kg 5-fluorouracil", "result": "did not lead to lower leukocyte counts or decreased survival"}, {"measurement": "total leukocytes or monocytes in periostin knockout mice", "setting": "[9]; vs control periostin knockout mice", "result": "did not lead to a decrease"}]}]}
